Test results published in US20200308548A1, “Amplifying Beta Cell Differentiation with Small Molecules BET (Bromodomain And Extraterminal Family Of Bromodomain-Containing Proteins) Inhibitors” (Centre National de la Recherche Scientifique (CNRS), priority 2016, published 2020).

Assays:
[1] = system: hiPSC-derived endocrine progenitor cells; assay: Percentage of Neurogenin 3 protein expressing cells by flow cytometry; format: cell-based, human; details: three days; 400 nM (+)-JQ1 or 2000 nM IBET-151; three biological experiments
Experimental: (§1) Human induced pluripotent stem cells (iPSC) and human embryonic stem cells (ESC) were cultured on standard tissue culture plastic ware coated with hESC-qualified matrigel in mTeSR1™medium. Cells were passaged every three to four days as single cells using TrypLe Select. Rock inhibitor (5 μM) was included at the first day of passaging. Three different iPSC lines derived from a total of two individual donors and one ESC line were applied.
(§2) For differentiation, cells were seeded as single cells in mTeSR1 with 5 μM Rock inhibitor into tissue culture plates (Corning CellBind) at densities ranging between 300-400.000 cells/cm^2. Cells were cultured for 24 h at 37° C., 5% CO2. Following incubation, medium was aspirated and the cells were washed once in PBS before adding the differentiation medium. Differentiation was carried out essentially as described in Rezania et al. (Rezania et al., 2014b). The differentiation protocol is outlined in FIG. 2A. […]
(§3) Differentiation efficiency was analyzed by flow cytometry essentially as described in van de Bunt et al., 2016. […] Unconjugated antibodies were detected with fluorophore conjugated secondary antibodies.

[2] = system: hiPSC-derived pancreatic progenitors; assay: Viability and cell number by Nucleocounter after BET inhibitor treatment; format: cell-based, human; details: three day treatment, all tested concentrations, vs concentration matched DMSO
Experimental: as §1, §2
Viability of the cells and total number of cells was analyzed using a Nucleocounter NC3000 Cell analyzer (Chemometec).

[3] = system: mouse embryonic pancreatic buds; assay: NGN3 immunohistochemistry and count of positive nuclei in cultured mouse pancreatic buds; format: cell-based; details: five days culture; 0.5 μM IBET-151 or 0.1 μM (+)-JQ1; vs DMSO
Experimental: (§4) Mouse pancreatic buds were dissected from E11.5 C57Bl6/J embryos and placed at the air/medium interface on 0.45μm filters in culture dishes containing RPMI medium supplemented with 10% fetal calf serum, 1% penicillin-streptomycin, 1% non-essential amino acids and 10mM HEPES. Pancreatic buds were cultured at 37° C. with 5% CO2.
(§5) IBET-151 was obtained from Sigma-Aldrich and (+)/-JQ1 from Abcam. Stock solutions were prepared in DMSO. Inhibitors or DMSO (0.1% final concentration) were added to the culture medium which was changed daily.
Pancreatic buds were fixed in 3.7% formaldehyde, pre-embedded in agarose gel (4% of type VII low gelling temperature agarose (Sigma-Aldrich)) and embedded in paraffin. Sections (4 μm thick) were collected and processed for 3,3' diaminobenzidine immunohistological staining of NGN3, as previously described (Attali et al., 2007).
Photographs representative of a whole pancreas were taken using a transmitted light microscope (Leitz DMRB, Leica) and digitized using a Hammamatsu cooled 3CCCD camera. Total number of NGN3 positive nuclei per rudiment were then manually counted. Values represent the average of three experiments with standard deviation error bars. Statistical analysis was performed using unpaired Student t test.

[4] = system: hiPSC-derived pancreatic progenitors; assay: Neurogenin 3 mRNA by qPCR in hiPSC-derived pancreatic progenitors differentiated towards endocrine lineage; format: cell-based, human; details: three days, six different concentrations
Experimental: as §1
as §2, with “medium.” for “medium. Differentiation was carried out essentially as described in Rezania et al. (Rezania et al., 2014b). The differentiation protocol is outlined in FIG. 2A.”
RNA was isolated from cells using NucleoSpin RNA/protein isolation kit (Macherey-Nagel). RNA was quantified using a nanodrop and […] RNA pr. sample was converted to cDNA using iScript reverse transcription kit (Bio-Rad). Gene expression was evaluated using Tagman gene expression assay for Neurogenin 3(Hs01875204, Applied Biosystems).
Neurogenin 3 transcripts were normalized to the average expression of two housekeeping genes (ACTB, Hs01060665_g1 and HPRT1, Hs99999909_m1, both from Applied Biosystems). Relative expression was calculated using the ΔΔCt method (FIGS. 2B and 2C).

[5] = system: genetically modified hESC line that express GFP under the control of the Neurogenin 3 promoter; assay: GFP reporter under Neurogenin 3 promoter in differentiated hESC line; format: cell-based, human; details: three days; 400 nM (+)-JQ1 or 2000 nM IBET-151; vs DMSO
Experimental: as §1, §2, §3

[6] = system: hiPSC-derived endocrine progenitor cells; assay: Neurogenin 3 protein by immunofluorescence microscopy; format: cell-based, human; details: three days; 500 nM (+)-JQ1 or 2000 nM IBET-151; vs DMSO
Experimental: as §1, §2

[7] = system: mouse embryonic pancreatic buds; assay: RT-qPCR of Ngn3, Ins1, Ins2 and MafA in cultured mouse pancreatic buds; format: cell-based; details: for Ngn3 relative mRNA levels: 0.5 μM IBET-151 or 0.1 μM (+)-JQ1, vs DMSO
Experimental: as §4, §5
Total RNA from three or more pancreatic buds was extracted using Qiagen RNA extraction microkit and 250ng were reverse transcribed using maxima first strand cDNA synthesis kit from Thermo Fisher. Real-time PCR analysis of Ngn3, MafA and Cyclophylin A were performed in 1× Sybr Green Powermix in QuantStudio 3 Applied Biosystem system. Real-time PCR analysis of Ins1 and Ins2 were performed in 1× TaqMan Gene Expression Mastermix in a QuantStudio 3 Applied Biosystem system. Relative expression of Ngn3, MafA and Cyclophylin A were calculated using the comparative method of relative quantification (2^−ΔΔCT) normalized to cyclophilin A expression. Values represent the average of three experiments with standard deviation error bars. Statistical analysis was performed using unpaired Student t test.

[8] = 5 days with inhibitor (0.5 μM IBET-151 or 0.1 μM (+)-JQ1), then 9 additional days without inhibitor

COc1cc2c(cc1-c1c(C)noc1C)ncc1[nH]c(=O)n([C@H](C)c3ccccn3)c12 [IBET-151]
number of cells expressing Neurogenin 3 protein relative to control treated cells [1]: approximately 1.6 fold
cell number compared to controls [2]: No obvious difference
viability compared to controls [2]: No obvious difference
number of NGN3 positive nuclei [3]: increased
Neurogenin 3 mRNA expression [4]: dose-dependent increase
concentration at which maximum Neurogenin 3 mRNA expression is achieved [4]: 2000 nM
cells expressing GFP compared to the control [5]: more cells expressing GFP
number of cells positive for Neurogenin 3 protein [6]: clear increase
staining intensity of Neurogenin 3 in individual cells [6]: stronger
Ins1 expression increase [7, 8]: 3 fold
Ins2 expression increase [7, 8]: 3 fold
MafA expression increase [7, 8]: 10 folds
Ngn3 relative mRNA levels ([7]; after 3 days of treatment): strongly increased
Ngn3 relative mRNA levels ([7]; after 7 days): remain increased
